T1: caspase-9 activation by the soluble Apaf-1 fragment (Homo sapiens, UniProt O14727)
T1 construct: Leu-Glu-His6 (C); made in house; host or cells: Escherichia coli BL21(DE3), pET29 (both proteins)
T1 sequence (O14727 1-591): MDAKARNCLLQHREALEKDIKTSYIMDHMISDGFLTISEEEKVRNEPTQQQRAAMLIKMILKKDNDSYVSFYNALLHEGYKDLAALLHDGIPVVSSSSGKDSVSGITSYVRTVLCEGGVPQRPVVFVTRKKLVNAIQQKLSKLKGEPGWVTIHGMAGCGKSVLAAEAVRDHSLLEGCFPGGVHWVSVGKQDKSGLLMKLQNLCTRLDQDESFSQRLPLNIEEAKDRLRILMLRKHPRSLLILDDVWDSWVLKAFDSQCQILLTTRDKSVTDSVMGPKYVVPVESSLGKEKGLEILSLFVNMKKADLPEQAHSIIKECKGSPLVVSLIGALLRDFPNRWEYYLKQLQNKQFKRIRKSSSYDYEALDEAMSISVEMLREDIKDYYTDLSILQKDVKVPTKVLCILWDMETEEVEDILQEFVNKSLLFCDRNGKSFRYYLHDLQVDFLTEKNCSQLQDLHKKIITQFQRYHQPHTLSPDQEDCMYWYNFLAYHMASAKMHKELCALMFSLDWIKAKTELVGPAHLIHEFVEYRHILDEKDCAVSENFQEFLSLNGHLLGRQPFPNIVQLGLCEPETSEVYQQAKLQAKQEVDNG
T1 sequence (P55211 1-315 partner limits assumed): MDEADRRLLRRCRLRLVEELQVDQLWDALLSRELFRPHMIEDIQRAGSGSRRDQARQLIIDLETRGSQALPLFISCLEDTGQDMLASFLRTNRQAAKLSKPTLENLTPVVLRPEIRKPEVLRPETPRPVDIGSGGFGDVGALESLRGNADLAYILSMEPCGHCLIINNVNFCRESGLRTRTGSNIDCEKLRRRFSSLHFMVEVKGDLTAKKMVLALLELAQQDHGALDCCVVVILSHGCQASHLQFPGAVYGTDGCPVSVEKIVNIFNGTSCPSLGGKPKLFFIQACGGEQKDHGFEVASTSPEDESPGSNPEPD
T1 sequence (P55211 331-416 partner limits assumed): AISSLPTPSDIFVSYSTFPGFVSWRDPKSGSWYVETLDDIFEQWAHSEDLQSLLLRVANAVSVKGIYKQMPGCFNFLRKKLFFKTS


Key:
[1] = target: T1, caspase-9 activation by the soluble Apaf-1 fragment; assay: Caspase-9 activation assay (fluorogenic, LEHD-AMC); format: biochemical; settings: for Apaf-1-mediated caspase-9 activation by nucleotide with EDTA (hydrolysis blocked): 1 millimolar EDTA; for Apaf-1-mediated caspase-9 activation by nucleotide with EDTA (hydrolysis blocked) / Apaf-1-mediated caspase-9 activation by nucleotide: FIG. 6B/6C; for Apaf-1-mediated caspase-9 activation by nucleotide: Apaf-1 2 micromolar, caspase-9 0.2 micromolar, no EDTA
Protocol: A fluorogenic assay was developed to monitor caspase-9 activation by the soluble Apaf-1 fragment. […] Then, caspase-9 and Apaf-1 were added to a final volume of 200 microliter and final concentrations of 0.2 micromolar and 2 micromolar, respectively. After incubation for 5 minutes at room temperature, the caspase-9 substrate LEHD-AMC (a tetrapeptide coupled to 7-amino […]) was added to the reaction at a final concentration of 200 micromolar. The conversion of the fluorogenic substrate was then measured using a Hitachi F2500 fluorescence spectrophotometer with an excitation wavelength of 380 nanometers and a fluorescence detection wavelength of 440 nanometers.

[2] = format: physicochemical, E. coli
Protocol: Preferably, solubility of the fragment is assessed in a lysate of a bacterial culture used to produce the fragment at a concentration of at least 1 milligram per liter of bacterial culture.
All constructs for protein expression were generated using a standard PCR-based cloning strategy, and the identity of individual clones was verified by double-stranded plasmid sequencing. A soluble Apaf-1 fragment (residues 1-591, sequence (SEQ ID NO: 1) shown in FIG. 1) was over-expressed in Escherichia coli strain BL21(DE3) using plasmid vector pET29 having the nucleotide sequence described by Jiang et al. (2000, J. Biol. Chem. 275:31199-31203) operatively ligated therein. The coding sequence included an additional sequence encoding eight amino acid residues at its carboxy-terminal end (i.e., linked to residue 591 in the translated protein). These residues (Leu-Glu-His6) included a nickel-binding hexa-histidine sequence used for metal affinity chromatographic purification of the expressed protein. Soluble Apaf-1 was purified from the cell lysate using a Ni-NTA (nitrilotriacetic acid-ligated nickel; Qiagen) chromatography column. Dithiothreitol (DTT) and ethylenediamine tetraacetic acid (EDTA) were added to the eluted fraction in final concentrations of 5 millimolar each. After incubation for 30 minutes on ice, the protein solution was applied to an anion-exchange column (Source-15Q, Pharmacia) for further purification.

Molecule	Apaf-1-mediated caspase-9 activation by nucleotide with EDTA (hydrolysis blocked) [1]	Apaf-1-mediated caspase-9 activation by nucleotide [1]	Solubility [2]	also measured
CSc1nc(N)c2ncn([C@@H]3O[C@H](COP(=O)(O)OP(=O)(O)OP(=O)(O)O)[C@@H](O)[C@H]3O)c2n1 [APM, 2-methylthio-ATP]	abrogated this effect	supported Apaf-1-mediated caspase-9 activation		
Nc1ncnc2c1ncn2[C@@H]1O[C@H](COP(=O)(O)OP(=O)(O)OP(O)(O)=S)[C@@H](O)[C@H]1O [ATP-gamma-S]		unable to support caspase-9 activation		
Nc1ncnc2c1ncn2[C@@H]1O[C@H](COP(=O)(O)OP(=O)(O)OP(=O)(O)O)[C@@H](O)[C@H]1O [ATP]	completely abolished the positive effect of ATP	further drastically improved caspase-9 activity		
Nc1nc(Cl)nc2c1ncn2[C@H]1C[C@H](O)[C@@H](COP(=O)(O)OP(=O)(O)OP(=O)(O)O)O1 [Fragment 2CdATP]	loss of this response	potent activator for caspase-9 activation		optimal concentration for caspase-9 activation [1]: approximately 100 micromolar
Nc1ncnc2c1ncn2[C@H]1C[C@H](O)[C@@H](COP(=O)(O)OP(=O)(O)OP(=O)(O)O)O1 [dATP]	completely abolished caspase-9 activation			optimal concentration for caspase-9 activation [1]: 1 to 5 µM; Apaf-1-mediated activation of caspase-9 at higher concentrations ([1]; above the optimal range of 1-5 micromolar): reduced slightly; caspase-9 activation compared with ATP ([1]; nucleotide at 2 micromolar): greater activation of caspase-9 than did ATP
C115S: point mutation C115S made in SEQ ID NO: 1 (protein, listed as Homo sapiens) MDAKARNCLLQHREALEKDIKTSYIMDHMISDGFLTISEEEKVRNEPTQQQRAAMLIKMILKKDNDSYVSFYNALLHEGYKDLAALLHDGIPVVSSSSGKDSVSGITSYVRTVLSEGGVPQRPVVFVTRKKLVNAIQQKLSKLKGEPGWVTIHGMAGCGKSVLAAEAVRDHSLLEGCFPGGVHWVSVGKQDKSGLLMKLQNLCTRLDQDESFSQRLPLNIEEAKDRLRILMLRKHPRSLLILDDVWDSWVLKAFDSQCQILLTTRDKSVTDSVMGPKYVVPVESSLGKEKGLEILSLFVNMKKADLPEQAHSIIKECKGSPLVVSLIGALLRDFPNRWEYYLKQLQNKQFKRIRKSSSYDYEALDEAMSISVEMLREDIKDYYTDLSILQKDVKVPTKVLCILWDMETEEVEDILQEFVNKSLLFCDRNGKSFRYYLHDLQVDFLTEKNCSQLQDLHKKIITQFQRYHQPHTLSPDQEDCMYWYNFLAYHMASAKMHKELCALMFSLDWIKAKTELVGPAHLIHEFVEYRHILDEKDCAVSENFQEFLSLNGHLLGRQPFPNIVQLGLCEPETSEVYQQAKLQAKQEVDNG				solubility and solution behavior (in words) [2]: without significant loss of activity or solubility
Full Length Apaf-1: full-length (ca. 140-kilodalton) human Apaf-1 protein expressed in E. coli (protein, listed as Homo sapiens) MDAKARNCLLQHREALEKDIKTSYIMDHMISDGFLTISEEEKVRNEPTQQQRAAMLIKMILKKDNDSYVSFYNALLHEGYKDLAALLHDGIPVVSSSSGKDSVSGITSYVRTVLCEGGVPQRPVVFVTRKKLVNAIQQKLSKLKGEPGWVTIHGMAGCGKSVLAAEAVRDHSLLEGCFPGGVHWVSVGKQDKSGLLMKLQNLCTRLDQDESFSQRLPLNIEEAKDRLRILMLRKHPRSLLILDDVWDSWVLKAFDSQCQILLTTRDKSVTDSVMGPKYVVPVESSLGKEKGLEILSLFVNMKKADLPEQAHSIIKECKGSPLVVSLIGALLRDFPNRWEYYLKQLQNKQFKRIRKSSSYDYEALDEAMSISVEMLREDIKDYYTDLSILQKDVKVPTKVLCILWDMETEEVEDILQEFVNKSLLFCDRNGKSFRYYLHDLQVDFLTEKNCSQLQDLHKKIITQFQRYHQPHTLSPDQEDCMYWYNFLAYHMASAKMHKELCALMFSLDWIKAKTELVGPAHLIHEFVEYRHILDEKDCAVSENFQEFLSLNGHLLGRQPFPNIVQLGLCEPETSEVYQQAKLQAKQEVDNG			−	
1-469: recombinant Apaf-1 fragment, residues 1-469 of SEQ ID NO: 1 (protein, listed as Homo sapiens) MDAKARNCLLQHREALEKDIKTSYIMDHMISDGFLTISEEEKVRNEPTQQQRAAMLIKMILKKDNDSYVSFYNALLHEGYKDLAALLHDGIPVVSSSSGKDSVSGITSYVRTVLCEGGVPQRPVVFVTRKKLVNAIQQKLSKLKGEPGWVTIHGMAGCGKSVLAAEAVRDHSLLEGCFPGGVHWVSVGKQDKSGLLMKLQNLCTRLDQDESFSQRLPLNIEEAKDRLRILMLRKHPRSLLILDDVWDSWVLKAFDSQCQILLTTRDKSVTDSVMGPKYVVPVESSLGKEKGLEILSLFVNMKKADLPEQAHSIIKECKGSPLVVSLIGALLRDFPNRWEYYLKQLQNKQFKRIRKSSSYDYEALDEAMSISVEMLREDIKDYYTDLSILQKDVKVPTKVLCILWDMETEEVEDILQEFVNKSLLFCDRNGKSFRYYLHDLQVDFLTEKNCSQLQDLHKKIITQFQRYHQ			+	
1-589: recombinant Apaf-1 fragment, residues 1-589 of SEQ ID NO: 1 (protein, listed as Homo sapiens) MDAKARNCLLQHREALEKDIKTSYIMDHMISDGFLTISEEEKVRNEPTQQQRAAMLIKMILKKDNDSYVSFYNALLHEGYKDLAALLHDGIPVVSSSSGKDSVSGITSYVRTVLCEGGVPQRPVVFVTRKKLVNAIQQKLSKLKGEPGWVTIHGMAGCGKSVLAAEAVRDHSLLEGCFPGGVHWVSVGKQDKSGLLMKLQNLCTRLDQDESFSQRLPLNIEEAKDRLRILMLRKHPRSLLILDDVWDSWVLKAFDSQCQILLTTRDKSVTDSVMGPKYVVPVESSLGKEKGLEILSLFVNMKKADLPEQAHSIIKECKGSPLVVSLIGALLRDFPNRWEYYLKQLQNKQFKRIRKSSSYDYEALDEAMSISVEMLREDIKDYYTDLSILQKDVKVPTKVLCILWDMETEEVEDILQEFVNKSLLFCDRNGKSFRYYLHDLQVDFLTEKNCSQLQDLHKKIITQFQRYHQPHTLSPDQEDCMYWYNFLAYHMASAKMHKELCALMFSLDWIKAKTELVGPAHLIHEFVEYRHILDEKDCAVSENFQEFLSLNGHLLGRQPFPNIVQLGLCEPETSEVYQQAKLQAKQEVD			++++	
94-591: recombinant Apaf-1 fragment, residues 94-591 of SEQ ID NO: 1 (protein, listed as Homo sapiens) VSSSSGKDSVSGITSYVRTVLCEGGVPQRPVVFVTRKKLVNAIQQKLSKLKGEPGWVTIHGMAGCGKSVLAAEAVRDHSLLEGCFPGGVHWVSVGKQDKSGLLMKLQNLCTRLDQDESFSQRLPLNIEEAKDRLRILMLRKHPRSLLILDDVWDSWVLKAFDSQCQILLTTRDKSVTDSVMGPKYVVPVESSLGKEKGLEILSLFVNMKKADLPEQAHSIIKECKGSPLVVSLIGALLRDFPNRWEYYLKQLQNKQFKRIRKSSSYDYEALDEAMSISVEMLREDIKDYYTDLSILQKDVKVPTKVLCILWDMETEEVEDILQEFVNKSLLFCDRNGKSFRYYLHDLQVDFLTEKNCSQLQDLHKKIITQFQRYHQPHTLSPDQEDCMYWYNFLAYHMASAKMHKELCALMFSLDWIKAKTELVGPAHLIHEFVEYRHILDEKDCAVSENFQEFLSLNGHLLGRQPFPNIVQLGLCEPETSEVYQQAKLQAKQEVDNG			++	

— US7432093B2, “Soluble, functional apoptotic protease-activating factor 1 fragments” (The Trustees of Princeton University, priority 2004, dated 2008)
